# Laboratory results published in the supplement of paper PMC10307832.
# Assays:
# Assay in all cases: relative viability (nuclei count vs DMSO), 5 days (fraction); higher = more cells survive
# NCI-H1792 = system: NCI-H1792
# Outline: (§1)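 Relative viability is defined as nuclei in treated wells over nuclei in vehicle wells. Duplicate plates were run and medians reported. Lung cancer cell lines in 1536-well plates were dosed by pin tool one day after seeding, with one drug or with a fixed anchor-drug dose plus five library-drug doses (not always all listed) in √10 steps, and nuclei were counted after 5 days.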
# LCLC-103H = system: LCLC-103H
# Outline: as §1
# 201T = system: 201T
# Outline: as §1
# RERF-LC-KJ = system: RERF-LC-KJ
# Outline: as §1
# NCI-H23 = system: NCI-H23
# Outline: as §1
# NCI-H322M = system: NCI-H322M
# Outline: as §1
# HCC-15 = system: HCC-15
# Outline: as §1
# LK-2 = system: LK-2
# Outline: as §1
# LXF-289 = system: LXF-289
# Outline: as §1
# CAL-12T = system: CAL-12T
# Outline: as §1
# COR-L 105 = system: COR-L 105
# Outline: as §1
# H3255 = system: H3255
# Outline: as §1
# BEN = system: BEN
# Outline: as §1
# NCI-H2228 = system: NCI-H2228
# Outline: as §1
# HARA = system: HARA
# Outline: as §1
# LC-2-ad = system: LC-2-ad
# Outline: as §1
# HCC-827 = system: HCC-827
# Outline: as §1
# NCI-H1437 = system: NCI-H1437
# Outline: as §1
# NCI-H1651 = system: NCI-H1651
# Outline: as §1
# NCI-H2085 = system: NCI-H2085
# Outline: as §1
# UMC-11 = system: UMC-11
# Outline: as §1
# LU99A = system: LU99A
# Outline: as §1
# NCI-H2405 = system: NCI-H2405
# Outline: as §1
compound,measurement,setting,value
O=c1[nH]c2ccccc2n1C1CCN(CCCC(c2ccc(F)cc2)c2ccc(F)cc2)CC1 [Pimozide] + CC(=O)Nc1cccc(-n2c(=O)n(C3CC3)c(=O)c3c(Nc4ccc(I)cc4F)n(C)c(=O)c(C)c32)c1 [Trametinib] (partner 0.02 µM),relative viability,NCI-H1792; first compound 0.08 µM,0.466
same,relative viability,NCI-H1792; first compound 0.253 µM,0.412
same,relative viability,NCI-H1792; first compound 0.8 µM,0.36
same,relative viability,NCI-H1792; first compound 2.53 µM,0.393
same,relative viability,NCI-H1792; first compound 8 µM,0.454
same,relative viability,LCLC-103H; first compound 0.08 µM,0.676
same,relative viability,LCLC-103H; first compound 0.253 µM,0.656
same,relative viability,LCLC-103H; first compound 0.8 µM,0.642
same,relative viability,LCLC-103H; first compound 2.53 µM,0.631
same,relative viability,LCLC-103H; first compound 8 µM,0.669
same,relative viability,201T; first compound 0.08 µM,0.717
same,relative viability,201T; first compound 0.253 µM,0.726
same,relative viability,201T; first compound 0.8 µM,0.7
same,relative viability,201T; first compound 2.53 µM,0.732
same,relative viability,201T; first compound 8 µM,0.686
same,relative viability,RERF-LC-KJ; first compound 0.08 µM,0.851
same,relative viability,RERF-LC-KJ; first compound 0.253 µM,0.778
same,relative viability,RERF-LC-KJ; first compound 0.8 µM,0.742
same,relative viability,RERF-LC-KJ; first compound 2.53 µM,0.764
same,relative viability,RERF-LC-KJ; first compound 8 µM,0.609
same,relative viability,NCI-H23; first compound 0.08 µM,0.377
same,relative viability,NCI-H23; first compound 0.253 µM,0.369
same,relative viability,NCI-H23; first compound 0.8 µM,0.291
same,relative viability,NCI-H23; first compound 2.53 µM,0.369
same,relative viability,NCI-H23; first compound 8 µM,0.318
same,relative viability,NCI-H322M; first compound 0.08 µM,0.402
same,relative viability,NCI-H322M; first compound 0.253 µM,0.505
same,relative viability,NCI-H322M; first compound 0.8 µM,0.538
same,relative viability,NCI-H322M; first compound 2.53 µM,0.546
same,relative viability,NCI-H322M; first compound 8 µM,0.54
same,relative viability,HCC-15; first compound 0.08 µM,0.398
same,relative viability,HCC-15; first compound 0.253 µM,0.355
same,relative viability,HCC-15; first compound 0.8 µM,0.386
same,relative viability,HCC-15; first compound 2.53 µM,0.358
same,relative viability,HCC-15; first compound 8 µM,0.34
same,relative viability,LK-2; first compound 0.08 µM,0.717
same,relative viability,LK-2; first compound 0.253 µM,0.826
same,relative viability,LK-2; first compound 0.8 µM,0.749
same,relative viability,LK-2; first compound 2.53 µM,0.492
same,relative viability,LK-2; first compound 8 µM,0.727
same,relative viability,LXF-289; first compound 0.08 µM,0.623
same,relative viability,LXF-289; first compound 0.253 µM,0.67
same,relative viability,LXF-289; first compound 0.8 µM,0.627
same,relative viability,LXF-289; first compound 2.53 µM,0.687
same,relative viability,LXF-289; first compound 8 µM,0.674
same,relative viability,CAL-12T; first compound 0.08 µM,0.326
same,relative viability,CAL-12T; first compound 0.253 µM,0.291
same,relative viability,CAL-12T; first compound 0.8 µM,0.34
same,relative viability,CAL-12T; first compound 2.53 µM,0.272
same,relative viability,CAL-12T; first compound 8 µM,0.251
same,relative viability,COR-L 105; first compound 0.08 µM,0.399
same,relative viability,COR-L 105; first compound 0.253 µM,0.418
same,relative viability,COR-L 105; first compound 0.8 µM,0.425
same,relative viability,COR-L 105; first compound 2.53 µM,0.437
same,relative viability,COR-L 105; first compound 8 µM,0.779
same,relative viability,H3255; first compound 0.253 µM,0.577
same,relative viability,H3255; first compound 0.8 µM,0.562
same,relative viability,H3255; first compound 2.53 µM,0.564
same,relative viability,H3255; first compound 8 µM,0.623
same,relative viability,BEN; first compound 0.08 µM,1.17
same,relative viability,BEN; first compound 0.253 µM,1.16
same,relative viability,BEN; first compound 0.8 µM,1.01
same,relative viability,BEN; first compound 2.53 µM,0.984
same,relative viability,BEN; first compound 8 µM,1.29
same,relative viability,NCI-H2228; first compound 0.08 µM,0.514
same,relative viability,NCI-H2228; first compound 0.253 µM,0.475
same,relative viability,NCI-H2228; first compound 0.8 µM,0.522
same,relative viability,NCI-H2228; first compound 2.53 µM,0.418
same,relative viability,NCI-H2228; first compound 8 µM,0.167
same,relative viability,HARA; first compound 0.08 µM,0.612
same,relative viability,HARA; first compound 0.253 µM,0.662
same,relative viability,HARA; first compound 0.8 µM,0.739
same,relative viability,HARA; first compound 2.53 µM,0.458
same,relative viability,HARA; first compound 8 µM,0.631
same,relative viability,LC-2-ad; first compound 0.08 µM,0.886
same,relative viability,LC-2-ad; first compound 0.253 µM,0.819
same,relative viability,LC-2-ad; first compound 0.8 µM,0.893
same,relative viability,LC-2-ad; first compound 2.53 µM,0.904
same,relative viability,LC-2-ad; first compound 8 µM,0.897
same,relative viability,HCC-827; first compound 0.253 µM,0.538
same,relative viability,HCC-827; first compound 0.8 µM,0.556
same,relative viability,HCC-827; first compound 2.53 µM,0.532
same,relative viability,HCC-827; first compound 8 µM,0.561
same,relative viability,NCI-H1437; first compound 0.08 µM,0.652
same,relative viability,NCI-H1437; first compound 0.253 µM,0.495
same,relative viability,NCI-H1437; first compound 0.8 µM,0.441
same,relative viability,NCI-H1437; first compound 2.53 µM,0.376
same,relative viability,NCI-H1437; first compound 8 µM,0.412
same,relative viability,NCI-H1651; first compound 0.08 µM,0.833
same,relative viability,NCI-H1651; first compound 0.253 µM,0.79
same,relative viability,NCI-H1651; first compound 0.8 µM,0.829
same,relative viability,NCI-H1651; first compound 2.53 µM,0.82
same,relative viability,NCI-H1651; first compound 8 µM,0.853
same,relative viability,NCI-H2085; first compound 0.08 µM,0.659
same,relative viability,NCI-H2085; first compound 0.253 µM,0.625
same,relative viability,NCI-H2085; first compound 0.8 µM,0.583
same,relative viability,NCI-H2085; first compound 2.53 µM,0.404
same,relative viability,NCI-H2085; first compound 8 µM,0.399
same,relative viability,UMC-11; first compound 0.08 µM,0.602
same,relative viability,UMC-11; first compound 0.253 µM,0.675
same,relative viability,UMC-11; first compound 0.8 µM,0.655
same,relative viability,UMC-11; first compound 2.53 µM,0.681
same,relative viability,UMC-11; first compound 8 µM,0.918
same,relative viability,LU99A; first compound 0.08 µM,0.66
same,relative viability,LU99A; first compound 0.8 µM,0.522
same,relative viability,LU99A; first compound 2.53 µM,0.48
same,relative viability,LU99A; first compound 8 µM,0.524
same,relative viability,NCI-H2405; first compound 0.08 µM,0.606
same,relative viability,NCI-H2405; first compound 0.253 µM,0.65
same,relative viability,NCI-H2405; first compound 0.8 µM,0.621
same,relative viability,NCI-H2405; first compound 2.53 µM,0.491
same,relative viability,NCI-H2405; first compound 8 µM,0.36
